# A melting point compilation (Tetko et al.; mined from patent text by program, amines drawn as free bases though some values may be those of a salt)
row,SMILES,melting point [°C]
1,COC(=O)c1cccc2cc(Cc3cc(NC(C)=O)ncn3)ccc12,158 to 160
2,CCOC(=O)c1ncn2c1CN=C(c1ccccc1F)c1cc(Cl)ccc1-2,195 to 196
3,CC(C)CC(=O)Nc1c(C(=O)c2cc(CO)co2)[nH]c2cc(Cl)ccc12,200 to 201
4,O=C(OCCn1ccnc1)c1ccccc1O,74 to 75
5,O=C1c2c(O)ccc(O)c2C(=O)c2c(NCCN3CCC(O)CC3)ccc(NCCN3CCC(O)CC3)c21,241 to 244
6,O=C(Nc1nnc(CC2CC2)o1)C(c1ccccc1)c1ccccc1,158 to 159
7,COC(=O)CCCCc1ccc(O)c(CCC(=O)OC)n1,92 to 95
8,N#CC(c1ccccn1)c1cccs1 (configuration not stated),48 to 50
9,O=C(Cn1c(-c2ccccc2)ncc(NC(=O)OCc2ccccc2)c1=O)NC(Cc1ccccc1)C(O)C(F)(F)F (configuration not stated),198 to 202
10,O=C(O)c1cc(CO)ccc1O,108 to 110
11,CN(Cc1cc2c3c(c1)c(=O)c(C(=O)NCc1ccc(F)cc1)cn3CC(=O)N2C)C[C@@H](O)c1cnccn1,108 to 110
12,O=C(O)C1=Cc2cc(Cl)ccc2N(Cc2ccc(Cl)cc2)C1C(F)(F)F (configuration not stated),250 to 253
13,COc1ccc2c(c1)S(=O)(=O)c1ccccc1C(=S)N2,250 to 252
14,Cc1oc(-c2ccccc2)nc1CCOc1ccc(C[C@H](NC(=O)C=Cc2ccccc2)C(=O)O)cc1,207 to 209
15,Fc1ccc(Nc2ncnc3cnc(N4CCC(CCCC5CCNCC5)CC4)nc23)cc1Cl,128 to 130
16,O=C(CCN1CCN(c2ncccn2)CC1)N1CC2CC3CC(C2)CC1C3,117 to 119
17,COc1cc(NCCCCCCO)c2nccc(C)c2c1,97 to 99
18,COc1cc(Nc2nccc(-c3ccc(N4CC(O)C4)nc3)n2)cc(OC)c1OC,186 to 187
19,COc1ccc(-c2nc(Cl)c(Oc3ccccc3OC)c(NS(=O)(=O)c3ccc(C(C)(C)C)cc3)n2)cc1,221 to 222
20,CCN(CC)CCN1C(=O)Nc2ccncc2C1c1ccccc1 (configuration not stated),132 to 134
21,Cn1c(COc2ccc(CC3SC(=O)NC3=O)cc2)nc2ccc(Oc3ccc4cccc(NC(=O)NCc5ccccc5)c4c3)cc21 (configuration not stated),220 to 222

row,SMILES,melting point [°C]
1,CCOC(=O)CCCC1CCN(CCOC(c2ccccc2)c2ccc(F)cc2)CC1 (configuration not stated),119 to 120
2,N#Cc1cc2c(-c3cccc(NC(=O)c4cccc(C(F)(F)F)c4)c3)ncnc2s1,210 to 212
3,CCc1cc(OCc2ccc(-c3ccccc3-c3nnn(C(c4ccccc4)(c4ccccc4)c4ccccc4)n3)cc2)c2c(n1)CCN(C)C2,143 to 144
4,COc1cnc(C(=O)O)cc1Cl,209
5,O=C(Oc1ccc(OC(=O)c2cc(O)c(O)c(O)c2)c(-c2ccccc2)c1)c1cc(O)c(O)c(O)c1,114 to 116
6,O=C(NO)[C@H]1CN(S(=O)(=O)c2ccc(-c3ccon3)s2)CCN1S(=O)(=O)c1ccc(-c2ccccc2)s1,204
7,COc1ccc(C=CS(=O)(=O)Cl)cc1,65 to 67
8,Nc1cccc2c1C(=O)N([C@@H]1CCC(=O)NC1=O)C2=O,308 to 310
9,COc1cc2c(cc1OC)CN(CCCCNC(=O)c1cc(C)ccc1OCCOCCF)CC2,89.2 to 89.5
10,CC12C=CC(=O)C=C1CCC1C2C(=O)CC2(C)C(SCc3ccc(Cl)cc3)CCC12 (configuration not stated),176 to 180
11,N#Cc1ccc(-c2nc(=O)c3ccccc3s2)cc1,241
12,O=C(O)c1cc(Oc2ccc([N+](=O)[O-])cc2)cc(Oc2ccc([N+](=O)[O-])cc2)c1,230 to 232
13,CCOC(=O)CCCOc1ccc2c(c1)C(N(CC)S(C)(=O)=O)CC(C)(C)O2 (configuration not stated),40 to 42
14,ClC1c2ccccc2CSc2ccccc21 (configuration not stated),79 to 82
15,COC(=O)C1Oc2ccccc2Cc2ccccc2O1,107 to 110
16,CCCCCCCC[C@H](N[C@@H](C)C(=O)O)C(=O)OCC,127 to 128
17,CC(CCn1c(=O)[nH]c2ccccc21)N1CCC(CC(=O)c2ccc(F)cc2)CC1 (configuration not stated),185
18,CCOC1OC(CO)C(COc2c(C(C)(C)C)cc(SC(C)(C)Sc3cc(C(C)(C)C)c(O)c(C(C)(C)C)c3)cc2C(C)(C)C)O1 (configuration not stated),60 to 62
19,C=CCC12CC(=O)N(C)C1(O)CCc1ccc(OC)cc12 (configuration not stated),146 to 149
20,COc1ccc(Cn2cnc3c2CC(C(=O)O)N(C(=O)C(c2ccccc2)c2ccccc2)C3)cc1C (configuration not stated),222 to 225

# More lines, now with the values ahead:
row,melting point [°C],SMILES
1,60 to 62,O=c1cc(-c2ccc(OCc3ccccc3)cc2)oc2cc(OCc3ccccc3)cc(OCc3ccccc3)c12
2,166 to 167,COc1ccc(CSc2nnc(-c3ccnc(N)c3)o2)cc1F
3,153 to 155,Cc1ccc(O)c(Cn2ccnc2)n1
4,74 to 75,COc1ccccc(Br)c1=O
5,151 to 153,CC1(C)CN=C2N(C1)c1ccc(Br)cc1C21OCCCO1
6,164 to 165,Cc1ccc(OC2COc3ccc(OCc4ccc5cc(F)ccc5n4)cc3C2O)cn1 (configuration not stated)
7,200,CCc1oc(-c2ccc(S(C)(=O)=O)cc2)c(Oc2ccc(F)cc2F)c(=O)c1C
8,190 to 196,COc1ccc(-c2ccc3nccn3c2)cc1-c1ccc2nonc2c1
9,73 to 74,CC(C)Oc1ccc(N(N)C(=O)N(C)C)cc1Cl
10,235 to 237,CC(C)(C)c1cc2c(c(-c3nc4ccc(S(=O)(=O)C(F)(F)F)cc4c(=O)[nH]3)c1O)CCO2
11,186 to 188,O=C1c2ccccc2C(=O)N1CCS(=O)(=O)c1ccccc1
12,132,CCNC(=O)c1ccc(-n2nnc(C(=O)NC3CC3)c2COCc2ccccc2)c(OCc2ccccc2)c1
13,177 to 178,CCOP(=O)(Cc1ccc(NC(=O)CCc2sc(N)nc2-c2ccc(Cl)cc2)cc1)OCC
14,169 to 171,CC(=O)CC(=O)N1N=C(c2ccc([N+](=O)[O-])cc2)c2cc3c(cc2CC1C)OCO3 (configuration not stated)
15,146 to 147,Cc1ccc(-n2ccc3c(OCC(C)(C)C)nn(C)c(=O)c32)c(C)c1
16,270 to 272,CCOC(=O)c1cn2c3c(c(-c4ccccc4)c(F)cc3c1=O)OCC2C (configuration not stated)
17,164 to 165,CN(CCN1CCC(=C(c2ccc(F)cc2)c2ccc(F)cc2)CC1)c1nc(=O)cc[nH]1
18,121,CS(=O)(=O)c1ccc(-c2cc(/C=C/CO)nn2C2CCCCC2)cc1
19,189 to 192,O=c1[nH]c(=O)n(CCCl)c2ccccc12
20,149 to 150,CCCCNS(=O)(=O)c1cc(C(=O)OCC)cc(NCc2ccccc2)c1Oc1ccccc1
21,103 to 105,CCOC(=O)c1c(C(F)(F)F)nc(OCC)c(C(N)=O)c1OCC
22,138 to 141,Cc1ccc(CCC(CO)n2cnc(C(N)=O)c2)cc1 (configuration not stated)
23,42 to 43,C=COCCCCOC(=O)CCCCCCCCCCC(=O)OCCCCOC=C
24,106,CCCCCN1CCC(n2nc(-c3c(-c4ccccc4)nn4ccccc34)ccc2=O)CC1
25,174 to 175,"COC(C)c1ccc(-c2ccc(O)cc2)cc1 (single isomer, unassigned; (+))"
26,196,CCCCCCn1c(=O)c(=O)[nH]c2c3ccccc3ccc21
